# Patent US8470526B2, “Method of suppressing human immunodeficiency virus (HIV) replication in a subject by administering a liver X receptor (LXR) agonist” (The George Washington University, priority 2005, dated 2013)
# Columns and labels:
# Format in all cases: cell-based
# HIV-1 ADA virions = assay: Analysis of virion-associated cholesterol ([3H]cholesterol incorporation into virions); conditions: virions from macrophages treated with 500 nM TO-901317 versus untreated cells; normalized according to p24
# Experimental: C—Incorporation of [^3H]cholesterol into virions produced by LXR agonist-treated and untreated (control) cells was measured in triplicate and results (mean±SD) are presented relative to cholesterol in the virions produced by control cells; *p<0.001.
# (§1) To determine whether impairment of cholesterol efflux has a role in HIV biology, we compared infectivity of HIV virions produced from monocyte-derived macrophages stimulated or not with an LXR agonist, TO-901317. We hypothesized that if impairment of cholesterol efflux is a specific mechanism to increase HIV replication, then agents counteracting this effect should have anti-HIV activity. LXR agonists up-regulate expression of ABCA1 at a transcriptional level and stimulate cholesterol efflux from various cell types, including human monocyte-derived macrophages ([47] and FIG. 9A). […] Virions were collected from TO-901317-treated and untreated cells, adjusted according to p24 content, and analyzed for infectivity using indicator P4-CCR5 cells.
# Analysis of virion-associated cholesterol. […] Culture supernatants were collected every 3 days over the period of 2 weeks, pooled, and virions were pelleted by ultracentrifugation, normalized according to p24 value, and the amount of incorporated [^3H]cholesterol counted on a beta-counter.
# [1] = tested on: Human monocyte-derived macrophages infected with HIV-1 ADA; assay: Cholesterol efflux to apoA-I from HIV-1 ADA-infected monocyte-derived macrophages; conditions: TO-901317 500 nM added at day 7 after infection, kept 7 more days; efflux measured on day 21 after infection
# Experimental: (§2) Human monocyte-derived macrophages were infected with HIV-1 ADA or mock-infected, and 7 days after infection were treated or not with LXR agonist, TO-901317 (500 nM), for 7 more days.
# A—Cholesterol efflux to apoA-I was measured on day 21 after infection. *p<0.01 (versus uninfected cells not treated with TO-901317), *p<0.01 (versus HIV-infected cells not treated with TO-901317).
# as §1
# Cholesterol and phospholipid efflux from RAW264.7 cells. […] For cholesterol efflux analysis, aliquots of medium and cells were counted. […] The efflux was calculated as radioactivity in the medium/(radioactivity in the medium+radioactivity remaining in the cells)×100%. […]
# HIV-1 ADA = assay: Infectivity of virions from HIV-1 ADA-infected macrophages on indicator P4-CCR5 cells; conditions: TO-901317 500 nM from day 7 after infection for 7 more days; virions adjusted according to p24; versus virions from untreated cells
# Experimental: as §2
# B—Virions were collected from culture supernatants of LXR agonist-treated and untreated (control) cells on day 10 and day 14 (pooled together), adjusted according to p24 content and analyzed for infectivity on indicator P4-CCR5 cells. Experiment was performed in triplicate and results (mean±SD) are presented as percent infectivity of virions produced by control cells; *p<0.001.
# as §1, with “activity.” for “activity. LXR agonists up-regulate expression of ABCA1 at a transcriptional level and stimulate cholesterol efflux from various cell types, including human monocyte-derived macrophages ([47] and FIG. 9A).”
# Infectivity assay. Virus infectivity was analyzed using P4-CCR5 indicator cells that express B-galactosidase under control of HIV-1 LTR. […] The plate was incubated at 37° C. for 1.5 hours and OD readings were taken at 420 nm.
smiles,measurement,setting,value
O=S(=O)(c1ccccc1)N(CC(F)(F)F)c1ccc(C(O)(C(F)(F)F)C(F)(F)F)cc1 [TO-901317],virion-associated cholesterol,HIV-1 ADA virions,significantly diminished
same,effect on impairment of cholesterol efflux to apoA-I by HIV-1 infection,[1],prevented the impairment of cholesterol efflux
same,reduction of infectivity of virions produced from macrophages treated with LXR agonist,HIV-1 ADA,about 80%
